From patent US20040127440A1, “Methods and compositions for control of bone formation via modulation of neuropeptide Y activity” (BAYLOR COLLEGE OF MEDICINE, priority 2000, published 2004) come the findings set out here.

The assay has as its system wt mice. Description: Intracerebroventricular infusion of NPY in wt mice, histological/histomorphometric analysis of vertebrae. The format is in vivo. As to conditions: 4 month-old wt mice, icv infusion 0.5 μl/hour (75 ng/hr) for 28 days, compared with PBS-treated mice. How it is done: Bone specimens were processed as described (Ducy et al., 1999, Genes Dev 13, 1025-1036).
Histological analyses were performed on undecalcified sections stained with the von Kossa reagent and counterstained with Kernechtrot (Amling et al., 1999, Endocrinology, 140: 4982-4987). Double labeling technique with calcein has been described (Amling et al., 1999, Endocrinology, 140: 4982-4987). Static and dynamic histomorphometric analyses were performed according to standard protocols (Parfitt et al., 1987, J Bone Min Res, 2:595-610) using the Osteomeasure Analysis System (Osteometrics, Atlanta). Statistical differences between groups (n=4 to 6) were assessed by Student's test.
Animals were anesthetized with avertin and placed on a stereotaxic instrument (Stoelting). The calvaria was exposed and a 0.7 mm hole was drilled upon bregma. A 28-gauge cannula (Brain infusion kit II, Alza) was implanted into the third ventricle according to the following coordinates: midline, −0.3 AP, 3 mm ventral (0 point bregma). The cannula was secure to the skull with cyanoacrylate, and attached with Tygon tubing to an osmotic pump (Alza) placed in the dorsal subcutaneous space of the animal. The rate of delivery was 0.5 μl/hour (75 ng/hr) of NPY (Sigma) or PBS for 28 days.
The issue of whether NPY binding to its receptor would affect bone mass was examined in this example. […]

For the substance neuropeptide Y [NPY], the bone mass result is on record as “decrease” and the bone volume entry is listed as “decrease”.
